Key:
Plasmopara viticola = assay: Green house: fungicidal control of grape downy mildew caused by Plasmopara viticola (PLASVI P4); assay type: in vivo; conditions: grape plants sprayed, inoculated after four days
Method: Fungicidal Control of Grape Downy Mildew Caused by Plasmopara viticola […]4) Grape cuttings were grown in pots to the 4 to 5 leaf stage. These plants were sprayed to run-off with a spray solution, containing the concentration of active ingredient or their mixture mentioned in the table below. The plants were allowed to air-dry and cultivated in a greenhouse for four days. Then they were inoculated with an aqueous spore suspension of Plasmopara viticola by spraying it at the lower leaf-side. Then the trial plants were immediately transferred for 24 h to a humid chamber with 22-24° C. and a and a saturated relative humidity. For a period of 5 days, cultivation followed in a greenhouse at 20-25° C. and a relative humidity about 50-80%. To stimulate the outbreak of the disease symptoms, the plants were transferred to a humid chamber again for 24 hours. Then the extent of fungal attack on the lower leaf surface was visually assessed as % diseased leaf area. The disease ratings were converted into efficacies. […] The expected efficacies of active compound mixtures were determined using Colby's formula [R. S. Colby, “Calculating synergistic and antagonistic responses of herbicide combinations”, Weeds 15, 20-22 (1967)] and compared with the observed efficacies.

Uncinula necator = assay: Green house: control of powdery mildew on grape caused by Uncinula necator (UNCINE P7); assay type: in vivo; conditions: grape plants sprayed, inoculated 7 days later, assessed after 22 days
Method: Control of Powdery Mildew on Grape Caused by Uncinula necator ([…]7) Grape cuttings were grown in pots to the 4 to 5 leaf stage. These plants were sprayed to run-off with a spray solution, containing the concentration of active ingredient or their mixture mentioned in the table below. Seven days later the treated plants were inoculated with spores of Uncinula necator by shaking heavily infested stock plants over the treated pots. After cultivation in the greenhouse for 22 days at 21-23° C. and a relative humidity between 40 to 70% the extent of fungal attack on the leaves was visually assessed as % diseased leaf area. The disease ratings were converted into efficacies. […] The expected efficacies of active compound mixtures were determined using Colby's formula [R. S. Colby, “Calculating synergistic and antagonistic responses of herbicide combinations”, Weeds 15, 20-22 (1967)] and compared with the observed efficacies.

[1] = application rate 5 g/ha, 0 = as untreated, 100 = not infected

CC(O)(Cn1cncn1)c1ccc(Oc2ccc(Cl)cc2)cc1C(F)(F)F (centres unmarked) [I, mefentrifluconazole]
Observed efficacy (Plasmopara viticola; application rate 1 g/ha): 2
Observed efficacy (Plasmopara viticola; [1]): 1
Observed efficacy (Uncinula necator; [1]): 72

Cn1cc(C(=O)Nc2ccccc2-c2cc(F)c(F)c(F)c2)c(C(F)F)n1 [II-6, fluxapyroxad]
Observed efficacy (Uncinula necator; application rate 0.5 g/ha): 52

Cc1cc(C(F)(F)F)nn1CC(=O)N1CCC(c2nc(C3=NOC(c4c(F)cccc4F)C3)cs2)CC1 (centres unmarked) [II-9, oxathiapiprolin]
Observed efficacy (Plasmopara viticola; application rate 0.1 g/ha): 18
